Like-named read-outs stand apart in the source and are kept apart here.
Key:
plasma NH3 [1] = test: Plasma NH3 reduction in Propensity Matching Score (PMS) Population; assay type: in vivo, human
Description: Episodes treated with extracorporeal detoxification (HD, HF, PD) during the timeframe of the analysis were excluded. There were 12 patients in each group, and NH3 levels were measured in 12- and 24-hour periods over 120 hours. […] The two populations analyzed included: 1) Population with baseline plasma NH3 levels over 100 micromol/L in non-neonate or 150 micromol/L in neonate; 2) Propensity Matching Score (PMS) Population. […] These rates of decrease were confirmed to be statistically significant.

CYP1A2 = biological target: T1, CYP1A2 (Homo sapiens, UniProt P05177); assay type: in vitro ADME
T1 sequence (P05177 1-516): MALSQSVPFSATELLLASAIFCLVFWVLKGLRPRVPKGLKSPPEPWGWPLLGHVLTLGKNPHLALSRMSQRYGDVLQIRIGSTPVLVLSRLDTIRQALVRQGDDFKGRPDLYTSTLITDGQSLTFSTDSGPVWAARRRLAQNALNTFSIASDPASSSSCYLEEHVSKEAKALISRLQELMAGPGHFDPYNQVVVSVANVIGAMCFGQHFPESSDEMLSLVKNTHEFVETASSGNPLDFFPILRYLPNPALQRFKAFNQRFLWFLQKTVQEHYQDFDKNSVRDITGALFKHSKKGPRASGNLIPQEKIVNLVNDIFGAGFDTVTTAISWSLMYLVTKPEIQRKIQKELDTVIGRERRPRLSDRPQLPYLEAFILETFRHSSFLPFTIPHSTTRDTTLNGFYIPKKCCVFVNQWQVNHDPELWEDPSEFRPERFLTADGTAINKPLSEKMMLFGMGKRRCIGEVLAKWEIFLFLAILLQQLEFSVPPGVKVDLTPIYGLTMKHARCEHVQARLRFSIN

[2] = Pharmacokinetics in healthy subjects after oral administration (radiolabeled and non-radiolabeled); assay type: in vivo, human; details: for half-life / CL renal: in vivo; for half-life / CL renal / Tmax: po
plasma NH3 [3] = test: Rate of reduction of plasma NH3 over 36 hours, population with baseline NH3 over 100/150 micromol/L; assay type: in vivo, human
From the text: The two populations analyzed included: 1) Population with baseline plasma NH3 levels over 100 micromol/L in non-neonate or 150 micromol/L in neonate; 2) Propensity Matching Score (PMS) Population. […] These rates of decrease were confirmed to be statistically significant.

[4] = PK study comparing oral to IV CARBAGLU in 36 healthy volunteers; assay type: in vivo, human
[5] = single radiolabeled oral dose of 100 mg/kg

## NC(=O)N[C@@H](CCC(=O)O)C(=O)O [carglumic acid, N-carbamoyl-L-glutamic acid]
Plasma NH3 [1]; 12 patients per group, over 120 hours
  Reduction of mean plasma NH3 levels from baseline compared with NH3 Scav alone: consistent and meaningful reduction
Plasma NH3 [1]; 24 hours post dose
  Median reduction of plasma NH3: 61%
CYP1A2
  Inhibition of CYP1A2: not an inhibitor
[2]; after oral administration
  24-hour urinary excretion: 4.5 % of the dose
  Apparent total clearance, median: 5.7 L/min
  Apparent volume of distribution, median: 2657 L
  Apparent volume of distribution, median per kg: 35.9 L/kg
  Apparent volume of distribution, range: 1616 to 5797 L
[2]; human, after oral administration, read-out: Initial half-life (converted)
  half-life: ~5.6 h
[2]; human, after oral administration, read-out: Renal clearance, median
  CL renal: 290 mL/min
[2]; human, after oral administration, read-out: Renal clearance, range
  CL renal: 204 to 445 mL/min
[2]; human, after oral administration, read-out: Terminal half-life (converted)
  half-life: ~22 h
[2]; human, plasma, 100 mg/kg, oral, read-out: Absolute bioavailability
  bioavailability: 9.9%
[2]; human, plasma, read-out: Tmax, median
  Tmax: 3 h
[2]; human, plasma, read-out: Tmax, range
  Tmax: 2 to 4 h
[2]; [5]
  Dose excreted unchanged in the urine: 9 % of the dose
  Dose recovered unchanged in the feces: up to 60 % of the dose
Plasma NH3 [3]; baseline plasma NH3 over 100 micromol/L in non-neonate or 150 micromol/L in neonate
  Median time to achieve 50% reduction of plasma NH3: 18 hours post dose
Plasma NH3 [3]; first 36 hours after treatment initiation, the two populations analyzed
  Speed of plasma NH3 reduction versus NH3 Scav alone group: statistically significantly faster
[4]; after IV administration
  Mean fraction of the dose excreted in the urine: 90%
[4]; after oral administration
  Mean fraction of the dose excreted in the urine: 7.5%
[4]; human, in vivo, oral vs IV, 36 healthy volunteers, read-out: Mean absolute bioavailability
  bioavailability: 9.87%
